From patent US20030139352A1, “Inhibitors of ABC drug transporters in cancer cells” (priority 2001, published 2003)
Like-named read-outs stand apart in the source and are kept apart here.

Experiments:
[1] = molecular target: human PGP membranes (PGP-associated ATPase) (Homo sapiens, UniProt P08183); conditions: for ATPase Activity: orthovanadate-sensitive; for effect on PGP-associated ATPase activity (in words): semi-quantitative assay
Protocol: The DMSO concentration (1.0%) was constant for all conditions within the experiment.
The test substances were incubated in the PGP membranes and supplemented with MgATP, with and without sodium orthovanadate present. Orthovanadate inhibits PGP by trapping MgADP in the nucleotide binding site. Thus, the ATPase activity measured in the presence of orthovanadate represents non-PGP ATPase activity and was subtracted from the activity generated without orthovanadate to yield ATPase activity.
(§1) ATPase assays were conducted in 96-well microtiter plates. A 0.06 mL reaction mixture containing 40 μg PGP membranes, test substance, and 4 mM MgATP, in buffer containing 50 mM Tris-MES, 2 mM EGTA, 50 mM KCl, 2 mM dithiothreitol, and 5 mM sodium azide, plus organic solvent was incubated at 37° C. for 20 minutes. […] Identical reaction mixtures containing 100 μM sodium orthovanadate were assayed in parallel. The reactions were stopped by the addition of 30 μl of 10% SDS+Antifoam A. The incubations were followed with addition of 200 μl of 35 mM Ammonium Molybdate in 15 mM Zinc Acetate: 10% Ascorbic Acid (1:4) and incubated for an additional 20 minutes at 37° C. Additionally, 0.06 mL aliquots of potassium phosphate standards prepared in the buffer described above, were incubated in the plates containing the test and control substances, with SDS and detection reagent added. The liberation of inorganic phosphate was detected by its absorbance at 800 nm and quantitated by comparing the absorbance to a phosphate standard curve. The concentration dependence of the PGP was analyzed for evidence of saturation of PGP-associated ATPase activity, and apparent kinetic parameters were calculated by non-linear regression.
as §1, with “plates.” for “plates. A 0.06 mL reaction mixture containing 40 μg PGP membranes, test substance, and 4 mM MgATP, in buffer containing 50 mM Tris-MES, 2 mM EGTA, 50 mM KCl, 2 mM dithiothreitol, and 5 mM sodium azide, plus organic solvent was incubated at 37° C. for 20 minutes.”, “activity.” for “activity, and apparent kinetic parameters were calculated by non-linear regression.”
as §1, with “plates.” for “plates. A 0.06 mL reaction mixture containing 40 μg PGP membranes, test substance, and 4 mM MgATP, in buffer containing 50 mM Tris-MES, 2 mM EGTA, 50 mM KCl, 2 mM dithiothreitol, and 5 mM sodium azide, plus organic solvent was incubated at 37° C. for 20 minutes.”

human PGP = human PGP (Homo sapiens, UniProt P08183); assay: Inhibition of human PGP-mediated [3H]-digoxin transport in 15B-J (LLC-PK1 expressing human PGP) monolayers; conditions: for inhibition of PGP-mediated digoxin transport (in words): 5 μM [3H]-digoxin, 15B-J monolayers; for Activity 2: high capacity, low affinity binding site; for Activity 1: low capacity, high affinity binding site
Sequence of human PGP (P08183 whole entry): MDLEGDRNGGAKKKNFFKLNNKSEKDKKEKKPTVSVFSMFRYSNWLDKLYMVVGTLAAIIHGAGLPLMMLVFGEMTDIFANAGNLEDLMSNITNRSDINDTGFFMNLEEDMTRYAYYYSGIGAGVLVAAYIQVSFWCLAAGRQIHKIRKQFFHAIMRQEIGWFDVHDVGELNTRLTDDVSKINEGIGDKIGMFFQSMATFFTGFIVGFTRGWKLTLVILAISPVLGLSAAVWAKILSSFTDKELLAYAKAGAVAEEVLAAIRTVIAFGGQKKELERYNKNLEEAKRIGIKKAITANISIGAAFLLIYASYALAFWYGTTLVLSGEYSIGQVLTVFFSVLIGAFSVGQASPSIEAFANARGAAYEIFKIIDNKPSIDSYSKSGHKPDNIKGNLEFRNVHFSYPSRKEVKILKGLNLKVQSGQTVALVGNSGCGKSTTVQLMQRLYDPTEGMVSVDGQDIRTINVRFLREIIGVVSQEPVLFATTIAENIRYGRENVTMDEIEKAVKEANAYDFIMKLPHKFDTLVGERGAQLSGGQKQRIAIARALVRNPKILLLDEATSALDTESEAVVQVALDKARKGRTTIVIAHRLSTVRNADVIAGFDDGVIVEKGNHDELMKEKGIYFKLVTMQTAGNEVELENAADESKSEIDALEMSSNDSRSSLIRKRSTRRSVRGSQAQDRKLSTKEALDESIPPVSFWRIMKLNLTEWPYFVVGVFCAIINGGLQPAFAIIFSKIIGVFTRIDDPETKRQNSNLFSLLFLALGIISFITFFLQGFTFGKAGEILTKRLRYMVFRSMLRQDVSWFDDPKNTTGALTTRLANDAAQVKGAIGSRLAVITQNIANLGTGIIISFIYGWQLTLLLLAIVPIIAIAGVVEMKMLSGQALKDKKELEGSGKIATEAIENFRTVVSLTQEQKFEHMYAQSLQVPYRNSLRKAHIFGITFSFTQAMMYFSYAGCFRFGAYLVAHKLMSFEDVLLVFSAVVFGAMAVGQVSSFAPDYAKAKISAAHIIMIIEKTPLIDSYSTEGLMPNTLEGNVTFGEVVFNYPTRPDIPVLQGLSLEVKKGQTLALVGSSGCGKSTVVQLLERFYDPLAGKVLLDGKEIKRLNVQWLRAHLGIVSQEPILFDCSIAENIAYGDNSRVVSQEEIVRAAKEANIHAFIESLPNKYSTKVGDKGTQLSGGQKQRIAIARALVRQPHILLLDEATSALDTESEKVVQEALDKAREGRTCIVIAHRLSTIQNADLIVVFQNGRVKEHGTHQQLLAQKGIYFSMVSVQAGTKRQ

[2] = molecular target: human PGP (P-glycoprotein) (Homo sapiens, UniProt P08183); assay: as above; conditions: human; for inhibition at 90 min, 0.0001 μM: 0.0001 μM test substance; for inhibition at 90 min, 0.0003 μM: 0.0003 μM test substance; for inhibition at 90 min, 0.001 μM: 0.001 μM test substance; for inhibition at 90 min, 0.01 μM: 0.01 μM test substance; for inhibition at 90 min, 0.03 μM: 0.03 μM test substance; for inhibition at 90 min, 0.1 μM: 0.1 μM test substance; for inhibition at 90 min, 1 μM: 1.0 μM test substance; for inhibition at 90 min, 3 μM: 3.0 μM test substance; for inhibition at 90 min, 10 μM: 10 μM test substance; for inhibition at 90 min, 30 μM: 30 μM test substance; for inhibition at 90 min, 100 μM: 100 μM test substance; for inhibition at 90 min, 0.003 μM: 0.003 μM test substance; for inhibition at 90 min, 0.3 μM: 0.3 μM test substance
Sequence of human PGP (P-glycoprotein) (P08183 whole entry): as above

[3] = test system: CLA (control) Monolayer, LLC-PK1 cells; conditions: 10 μM in donor
[4] = pH 7.2, Ketoconazole Normalized % Inhibition of Digoxin Transport, normalized to 25 μM ketoconazole
[5] = pH 7.2, % Inhibition of Digoxin Transport, 5 μM [3H]-digoxin, 90 min

Sequence of human PGP membranes (PGP-associated ATPase) (P08183 whole entry): as above

SMILES | ATPase Activity ([1]; 0.01 μM test substance) [nmol/mg/min] | ATPase Activity ([1]; 0.03 μM test substance) [nmol/mg/min] | ATPase Activity ([1]; 0.1 μM test substance) [nmol/mg/min] | ATPase Activity ([1]; 0.3 μM test substance) [nmol/mg/min] | ATPase Activity ([1]; 1.0 μM test substance) [nmol/mg/min] | ATPase Activity ([1]; 3.0 μM test substance) [nmol/mg/min] | ATPase Activity ([1]; 10 μM test substance) [nmol/mg/min] | ATPase Activity ([1]; 30 μM test substance) [nmol/mg/min] | ATPase Activity ([1]; 100 μM test substance) [nmol/mg/min] | effect on PGP-associated ATPase activity (in words) [1] | inhibition of PGP-mediated digoxin transport (in words) (human PGP) | Activity 2 (human PGP) [µM] | Activity 1 (human PGP) [nM] | inhibition at 90 min, 0.0001 μM [2, 4] [%] | inhibition at 90 min, 0.0003 μM [2, 4] [%] | inhibition at 90 min, 0.001 μM [2, 4] [%] | inhibition at 90 min, 0.01 μM [2, 4] [%] | inhibition at 90 min, 0.03 μM [2, 4] [%] | inhibition at 90 min, 1 μM [2, 4] [%] | inhibition at 90 min, 3 μM [2, 4] [%] | further results
C=CCN1CC[C@]23c4c5ccc(O)c4O[C@H]2C(=O)CC[C@@]3(O)[C@H]1C5 [Naloxone, naloxone] | -0.8 | 0.7 | 3.6 | -0.6 | 0.4 | 1.7 | 2 | 1.9 | 1.8 | not to limit the ATPase activity | the inhibition was not concentration-dependent | 30 | 1.0 | 6.2 | 8.4 | 10 | -4.5 | 5.7 | 7.8 | -11 | ATPase Activity ([1]; 0.001 μM test substance): -3.8 nmol/mg/min; inhibition at 90 min, 0.1 μM [2, 4]: -2.7%; inhibition at 90 min, 10 μM [2, 4]: 0.4%; inhibition at 90 min, 30 μM [2, 4]: 41%; inhibition at 90 min, 100 μM [2, 4]: 37%
Cc1ccc(NC(=O)c2ccc(CN3CCNCC3)cc2)cc1Nc1nccc(-c2cccnc2)n1 [Gleevec metabolite] | – | – | – | – | – | – | – | – | – | – | – | – | – | – | – | – | – | – | – | – | pmoles in Receiver ([3]; A→B, 15 min): 8.4 pmol; pmoles in Receiver ([3]; A→B, 30 min): 2.76 pmol; pmoles in Receiver ([3]; A→B, 60 min): 1.6 pmol; pmoles in Receiver ([3]; A→B, 90 min): 2.0 pmol; pmoles in Receiver ([3]; A→B, 120 min): 1.7 pmol; pmoles in Receiver ([3]; B→A, 15 min): 1.0 pmol; pmoles in Receiver ([3]; B→A, 30 min): 0.86 pmol; pmoles in Receiver ([3]; B→A, 60 min): 0.7 pmol; pmoles in Receiver ([3]; B→A, 90 min): 0.9 pmol; pmoles in Receiver ([3]; B→A, 120 min): 1.9 pmol
C=C1CC[C@@]2(O)[C@H]3Cc4ccc(O)c5c4[C@@]2(CCN3CC2CC2)[C@H]1O5 [Nalmefene, nalmefene] | 1.3 | 1.2 | 1.1 | 1.9 | -1.6 | 0.2 | -0.5 | 2.3 | 3.3 | not to limit the ATPase activity | increasingly inhibited in response to increasing concentration | 100 | 0.3 | 7.5 | 10 | 4 | 7.4 | -10 | -3.2 | 14 | ATPase Activity ([1]; 0.003 μM test substance): 2.4 nmol/mg/min; inhibition at 90 min, 0.0001 μM [2, 5]: 5.2%; inhibition at 90 min, 0.0003 μM [2, 5]: 7.2%; inhibition at 90 min, 0.001 μM [2, 5]: 2.8%; inhibition at 90 min, 0.003 μM [2, 5]: 5.1%; inhibition at 90 min, 0.01 μM [2, 5]: 3.9%; inhibition at 90 min, 0.03 μM [2, 5]: -7.2%; inhibition at 90 min, 0.1 μM [2, 5]: -0.3%; inhibition at 90 min, 0.3 μM [2, 5]: -5.6%; inhibition at 90 min, 1 μM [2, 5]: -2.6%; inhibition at 90 min, 3 μM [2, 5]: 10%; inhibition at 90 min, 10 μM [2, 5]: 13%; inhibition at 90 min, 30 μM [2, 5]: 35%; inhibition at 90 min, 100 μM [2, 5]: 42%; inhibition at 90 min, 0.003 μM [2, 4]: 7.4%; inhibition at 90 min, 0.3 μM [2, 4]: -10%; inhibition at 90 min, 10 μM [2, 4]: 19%; inhibition at 90 min, 30 μM [2, 4]: 51%; inhibition at 90 min, 100 μM [2, 4]: 61%
